According to patent US10323000B2, “Indole derivatives and their use in neurodegenerative diseases” (priority 2014, dated 2019):
Like-named read-outs stand apart in the source and are kept apart here.

Assays:
human P2X7 receptor = human P2X7 receptor (Homo sapiens (Human), UniProt Q99572); test: Pore permeation assay (YO PRO dye uptake); type: cell-based
[1] = target: P2X7 (IL-1β release from THP-1 cells) (Homo sapiens (Human), UniProt Q99572); test: IL-1β release assay; type: cell-based
Experimental: IL-1β release assay: The activation of P2X7 by ATP leads to a fast transient activation of cells resulting in influx of Ca^2+ followed by conversion of pro-IL-1β to active IL-1β. The functional activity of P2X7 compounds was measured by the release of mature […] in the culture medium of THP-1 cells, detected by sandwich ELISA. […] THP-1 cells were harvested from the flask in 50 ml by centrifugation for 3 min at 100 g. The cells were resuspended to 2×10^5 cells/ml in medium supplemented with 0.5 μM PMA and incubated. The cells were washed and resuspended to 1.5×10^5 cells/ml in medium complemented with 10 ng/ml LPS, and the cells were primed for 4 h at 37° C., 5% CO2. After addition of 20 μL of prediluted test compounds, blank, standard and control reagents, cells were incubated for a further 20 min at 37° C. and stimulated with 0.8 mM BzATP for 30 minutes. The cells were centrifuged, supernatant was collected and the presence of mature IL-1β was detected using Dual human IL-1b kit following manufacturer's instruction. The tetrahydrobenzodiazepine analogs effectively modulated the activity of P2X7 in the cells as measured by the levels of pro-inflammatory cytokine IL-1β, which is released by the activation of P2X7 receptor.

[2] = THP-1 cells, LPS primed, 0.8 mM BzATP, mature IL-1β by sandwich ELISA, read-out: hTHP-1/IL-ib IC50
[3] = HEK293 transfected with human P2X7, BzATP 10 uM, YO PRO dye uptake, read-out: hP2X7 IC50

human P2X7 receptor, sequence (Q99572 whole entry): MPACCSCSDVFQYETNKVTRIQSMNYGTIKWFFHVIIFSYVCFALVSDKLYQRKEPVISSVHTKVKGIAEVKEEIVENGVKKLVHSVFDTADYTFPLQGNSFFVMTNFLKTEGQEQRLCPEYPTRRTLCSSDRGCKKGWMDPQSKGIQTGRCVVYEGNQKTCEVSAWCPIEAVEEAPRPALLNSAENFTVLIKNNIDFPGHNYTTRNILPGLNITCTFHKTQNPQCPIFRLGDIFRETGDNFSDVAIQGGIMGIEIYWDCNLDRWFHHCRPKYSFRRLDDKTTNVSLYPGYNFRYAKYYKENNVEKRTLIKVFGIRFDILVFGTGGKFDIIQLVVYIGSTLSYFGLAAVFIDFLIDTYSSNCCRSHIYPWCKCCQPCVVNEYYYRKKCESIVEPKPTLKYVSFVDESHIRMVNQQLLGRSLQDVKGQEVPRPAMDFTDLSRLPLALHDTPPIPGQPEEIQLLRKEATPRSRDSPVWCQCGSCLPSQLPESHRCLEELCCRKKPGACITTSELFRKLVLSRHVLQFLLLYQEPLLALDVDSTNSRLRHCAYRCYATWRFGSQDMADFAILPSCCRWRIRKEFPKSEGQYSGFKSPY
P2X7 (IL-1β release from THP-1 cells), sequence (Q99572 whole entry): as above

O=C(NCC1CC(C(F)(F)F)CC(F)(F)C1)c1cn(C2COC2)c2cccc(Cl)c12 (centres unmarked) [Compound 91, 4-chloro-N-((3,3-difluoro-5-(trifluoromethyl)cyclohexyl)methyl)-1-(oxetan-3-yl)-1H-indole-3-carboxamide]
IC50 (human P2X7 receptor): 10 to 100 nM
IC50 [1]: 101 to 500 nM

O=C(NCC1(O)CCCC(F)(F)C1)c1cn(C2COC2)c2cccc(Cl)c12 (racemic) [Compound 86, 4-chloro-N-((3,3-difluoro-1-hydroxycyclohexyl)methyl)-1-(oxetan-3-yl)-1H-indole-3-carboxamide]
IC50 (human P2X7 receptor): 10 to 100 nM
IC50 [1]: 10 to 100 nM

O=C(NCC1(O)CCCC(F)(F)C1)c1cn(CC2CCCO2)c2cccc(Cl)c12 (centres unmarked) [Compound 139, 4-chloro-N-((3,3-difluoro-1-hydroxycyclohexyl)methyl)-1-((tetrahydrofuran-2-yl)methyl)-1H-indole-3-carboxamide]
IC50 (human P2X7 receptor): 10 to 100 nM
IC50 [1]: 10 to 100 nM

O=C(NCC1(O)CCC(F)(F)CC1)c1cn(CCC(F)F)c2cccc(Cl)c12 [Compound 10, 4-Chloro-1-(3,3-difluoro-propyl)-1H-indole-3-carboxylic acid (4,4-difluoro-1-hydroxy-cyclohexylmethyl)-amide]
IC50 (human P2X7 receptor): 10 to 100 nM
IC50 [1]: 101 to 500 nM

O=C(NCC1(O)CCCCCC1)c1cn(C2COC2)c2cccc(Cl)c12 [Compound 65, 4-Chloro-1-oxetan-3-yl-1H-indole-3-carboxylic acid (1-hydroxy-cycloheptylmethyl)-amide]
IC50 (human P2X7 receptor): 10 to 100 nM
IC50 [1]: 101 to 500 nM

O=C(NCC1CCCC(F)(F)C1)c1cn(CC2CCCN2)c2cccc(Cl)c12 (centres unmarked) [Compound 156, 4-chloro-N-((3,3-difluorocyclohexyl)methyl)-1-(pyrrolidin-2-ylmethyl)-1H-indole-3-carboxamide]
IC50 (human P2X7 receptor): 10 to 100 nM
IC50 [1, 2]: < 10 nM

O=C(NCC1CCC(F)(F)CC1)c1cn(CC2CCOC2)c2cccc(Cl)c12 (centres unmarked) [Compound 148, 4-chloro-N-((4,4-difluorocyclohexyl)methyl)-1-((tetrahydrofuran-3-yl)methyl)-1H-indole-3-carboxamide]
IC50 (human P2X7 receptor): 10 to 100 nM
IC50 [1]: 10 to 100 nM

COCCn1cc(C(=O)NC[C@@]2(O)CCCC(F)(F)C2)c2c(Cl)cccc21 [Compound 21, (R)-4-chloro-N-((3,3-difluoro-1-hydroxycyclohexyl)methyl)-1-(2-methoxyethyl)-1H-indole-3-carboxamide]
IC50 (human P2X7 receptor; [3]): < 10 nM
IC50 [1]: 10 to 100 nM

O=C(NCCC1CCCC1)c1cn(C2COC2)c2cccc(Cl)c12 [Compound 82, 4-Chloro-1-oxetan-3-yl-1H-indole-3-carboxylic acid (2-cyclopentyl-ethyl)-amide]
IC50 (human P2X7 receptor; [3]): < 10 nM
IC50 [1]: 101 to 500 nM

CN1CC(F)(F)C[C@H]1Cn1cc(C(=O)NCC2CCC(F)(F)CC2)c2c(Cl)cccc21 [Compound 180, (S)-4-chloro-1-((4,4-difluoro-1-methylpyrrolidin-2-yl)methyl)-N-((4,4-difluorocyclohexyl)methyl)-1H-indole-3-carboxamide]
IC50 (human P2X7 receptor): 101 to 500 nM
IC50 [1]: 500 to 999 nM

O=C(NCC1CCC(F)(F)CC1)c1cn(C2CCOC2)c2cccc(Cl)c12 (centres unmarked) [Compound 114, 4-chloro-N-((4,4-difluorocyclohexyl)methyl)-1-(tetrahydrofuran-3-yl)-1H-indole-3-carboxamide]
IC50 (human P2X7 receptor): 10 to 100 nM
IC50 [1]: 101 to 500 nM

CCC1CCCC(O)(CNC(=O)c2cn(CC3CCCO3)c3cccc(Cl)c23)C1 (centres unmarked) [Compound 137, 4-chloro-N-((3-ethyl-1-hydroxycyclohexyl)methyl)-1-((tetrahydrofuran-2-yl)methyl)-1H-indole-3-carboxamide]
IC50 (human P2X7 receptor): 101 to 500 nM
IC50 [1, 2]: > 1000 nM

O=C(NC[C@@]1(O)CCCC(F)(F)C1)c1cn(CCN2CCCC2)c2cccc(Cl)c12 [Compound 176, (R)-4-chloro-N-((3,3-difluoro-1-hydroxycyclohexyl)methyl)-1-(2-(pyrrolidin-1-yl)ethyl)-1H-indole-3-carboxamide]
IC50 (human P2X7 receptor; [3]): > 1000 nM
IC50 [1, 2]: > 1000 nM

O=C(NCC1CCC(F)(F)CC1)c1cn(CC(=O)N2CCCCC2)c2cccc(Cl)c12 [Compound 195, 4-Chloro-1-(2-oxo-2-piperidin-1-yl-ethyl)-1H-indole-3-carboxylic acid (4,4-difluoro-cyclohexylmethyl)-amide]
IC50 (human P2X7 receptor): 10 to 100 nM
IC50 [1]: 101 to 500 nM

O=C(NCC1(O)CCCC1)c1cn(C2COC2)c2cccc(Cl)c12 [Compound 81, 4-Chloro-1-oxetan-3-yl-1H-indole-3-carboxylic acid (1-hydroxy-cyclopentylmethyl)-amide]
IC50 (human P2X7 receptor): 101 to 500 nM
IC50 [1]: 500 to 999 nM

O=C(NCC1CCCC(F)(F)C1)c1cn(C2COC2)c2cccc(Cl)c12 (racemic) [Compound 69, 4-chloro-N-((3,3-difluorocyclohexyl)methyl)-1-(oxetan-3-yl)-1H-indole-3-carboxamide]
IC50 (human P2X7 receptor): 10 to 100 nM
IC50 [1]: 101 to 500 nM

O=C(NCC1CCC(C(F)(F)F)CC1)c1cn(C2COC2)c2cccc(Cl)c12 (centres unmarked) [Compound 53, 4-Chloro-1-oxetan-3-yl-1H-indole-3-carboxylic acid (4-trifluoromethyl-cyclohexylmethyl)-amide]
IC50 (human P2X7 receptor): 10 to 100 nM
IC50 [1]: 101 to 500 nM

O=C(NCCOC1CCCC1)c1cn(C2COC2)c2cccc(Cl)c12 [Compound 72, 4-Chloro-1-oxetan-3-yl-1H-indole-3-carboxylic acid (2-cyclopentyloxy-ethyl)-amide]
IC50 (human P2X7 receptor): 500 to 999 nM
IC50 [1, 2]: > 1000 nM

O=C(NCC1(O)CCCCC1)c1cn(C2COC2)c2cccc(Cl)c12 [Compound 58, 4-Chloro-1-oxetan-3-yl-1H-indole-3-carboxylic acid (1-hydroxy-cyclohexylmethyl)-amide]
IC50 (human P2X7 receptor): 10 to 100 nM
IC50 [1]: 101 to 500 nM

O=C(NC[C@H]1CCCC(F)(F)C1)c1cn(C2COC2)c2cccc(Cl)c12 [Compound 67, 4-chloro-N—(((S)-3,3-difluorocyclohexyl)methyl)-1-(oxetan-3-yl)-1H-indole-3-carboxamide]
IC50 (human P2X7 receptor): 10 to 100 nM
IC50 [1]: 10 to 100 nM

COCCn1cc(C(=O)NCC2(O)CCCCC2O)c2c(Cl)cccc21 (centres unmarked) [Compound 18, 4-Chloro-1-(2-methoxy-ethyl)-1H-indole-3-carboxylic acid (1,2-dihydroxy-cyclohexylmethyl)-amide]
IC50 (human P2X7 receptor; [3]): > 1000 nM
IC50 [1, 2]: > 1000 nM

O=C(NCC1(N2CCN(c3ccccc3)CC2)CCOCC1)c1cn(C2COC2)c2cccc(Cl)c12 [Compound 44, 4-chloro-1-(oxetan-3-yl)-N-((4-(4-phenylpiperazin-1-yl)tetrahydro-2H-pyran-4-yl)methyl)-1H-indole-3-carboxamide]
IC50 (human P2X7 receptor): 10 to 100 nM
IC50 [1]: 101 to 500 nM

CC(C)OCCn1cc(C(=O)NCC2CCC(F)(F)CC2)c2c(Cl)cccc21 [Compound 128]
IC50 (human P2X7 receptor): 101 to 500 nM
IC50 [1]: 101 to 500 nM

O=C(NCC1(O)CCC(F)(F)CC1)c1cn(CCC(F)(F)F)c2cccc(Cl)c12 [Compound 12, 4-chloro-N-((4,4-difluoro-1-hydroxycyclohexyl)methyl)-1-(3,3,3-trifluoropropyl)-1H-indole-3-carboxamide]
IC50 (human P2X7 receptor): 101 to 500 nM
IC50 [1]: 500 to 999 nM

O=C(NC[C@]1(O)CCCC(F)(F)C1)c1cn(C2COC2)c2cccc(Cl)c12 [Compound 85, (S)-4-chloro-N-((3,3-difluoro-1-hydroxycyclohexyl)methyl)-1-(oxetan-3-yl)-1H-indole-3-carboxamide]
IC50 (human P2X7 receptor): 10 to 100 nM
IC50 [1]: 10 to 100 nM

CCN(CC)C(=O)Cn1cc(C(=O)NCC2CCC(F)(F)CC2)c2c(Cl)cccc21 [Compound 207, 4-Chloro-1-diethylcarbamoylmethyl-1H-indole-3-carboxylic acid (4,4-difluoro-cyclohexylmethyl)-amide]
IC50 (human P2X7 receptor): 10 to 100 nM
IC50 [1]: 101 to 500 nM

O=C(NCC1CCC(F)(F)CC1)c1cn(C2CCNC2)c2cccc(Cl)c12 (centres unmarked) [Compound 121, 4-chloro-N-((4,4-difluorocyclohexyl)methyl)-1-(pyrrolidin-3-yl)-1H-indole-3-carboxamide]
IC50 (human P2X7 receptor): 10 to 100 nM
IC50 [1]: 10 to 100 nM

O=C(NCC1(O)CCC(F)(F)CC1)c1cn(C[C@@H]2CCCO2)c2cccc(Cl)c12 [Compound 134, (S)-4-chloro-N-((4,4-difluoro-1-hydroxycyclohexyl)methyl)-1-((tetra hydrofuran-2-yl)methyl)-1H-indole-3-carboxamide]
IC50 (human P2X7 receptor): 10 to 100 nM
IC50 [1]: 101 to 500 nM

CC(NC(=O)c1cn(C2COC2)c2cccc(Cl)c12)[C@]12C[C@H]3C[C@H](C[C@H](C3)C1)C2 (some centres unmarked) [Compound 62, 4-Chloro-1-oxetan-3-yl-1H-indole-3-carboxylic acid (1-adamantan-1-yl-ethyl)-amide]
IC50 (human P2X7 receptor): 10 to 100 nM
IC50 [1]: 10 to 100 nM

CC(C)N1CCCC1Cn1cc(C(=O)NCC2CCC(F)(F)CC2)c2c(Cl)cccc21 (centres unmarked) [Compound 196, 4-chloro-N-((4,4-difluorocyclohexyl)methyl)-1-((1-isopropylpyrrolidin-2-yl)methyl)-1H-indole-3-carboxamide]
IC50 (human P2X7 receptor): 10 to 100 nM
IC50 [1]: 101 to 500 nM

O=C(NCC1CCC(F)(F)CC1)c1cn(CC2CC(F)(F)C2)c2cccc(Cl)c12 [Compound 127, 4-chloro-1-((3,3-difluorocyclobutyl)methyl)-N-((4,4-difluorocyclohexyl)methyl)-1H-indole-3-carboxamide]
IC50 (human P2X7 receptor): 10 to 100 nM
IC50 [1]: 500 to 999 nM
